Data reported in the NIST ThermoML archive (doi:10.1021/je301001g).

Details: for surface tension liquid-gas: Maximal bubble pressure; for mass density / electrical conductivity / viscosity: 101.33 kPa, Liquid; for mass density: Buoyancy - hydrostatic balance; for electrical conductivity: MP522 conductivity instrument; for viscosity: Capillary tube (Ostwald / Ubbelohde) method

CCCCNC(=O)C[n+]1ccn(CC)c1.O=S(=O)([N-]S(=O)(=O)C(F)(F)F)C(F)(F)F
Details	electrical conductivity [S/m]	mass density [kg/m3]	surface tension liquid-gas [mN/m]	viscosity [mPa·s]
283.15 K	0.00606	1431	32.7	–
288.15 K	0.00985	1427	32.4	–
293.15 K	0.0153	1422.7	32.2	–
298.15 K	0.0233	1418	31.8	777.5
303.15 K	0.0332	1413.5	31.6	517.3
308.15 K	0.0467	1409	31	359
313.15 K	0.0639	1404.4	30.8	255.2
318.15 K	0.0854	1399.7	30.5	187.9
323.15 K	0.111	1395.4	30.3	138.9
328.15 K	0.141	1391	29.8	106
333.15 K	0.177	1386.7	29.4	82.1
338.15 K	0.219	1382.3	29	64.4
343.15 K	–	–	–	53.3
348.15 K	–	–	–	43.5
353.15 K	–	–	–	35.8
358.15 K	–	–	–	30
363.15 K	–	–	–	25.3
